Tests used:
Experiment in all cases: Eurofins kinase selectivity profile against 380 other human recombinant kinases (Table S2)
Format in all cases: biochemical
[1] = target: T1, 380 human recombinant protein kinases (Homo sapiens, UniProt O95835); settings: LATS1(h), read-out: Inhibition rate
T1 construct: purchased Eurofins (Celle Lévescault)
T1 sequence (O95835 1-1130): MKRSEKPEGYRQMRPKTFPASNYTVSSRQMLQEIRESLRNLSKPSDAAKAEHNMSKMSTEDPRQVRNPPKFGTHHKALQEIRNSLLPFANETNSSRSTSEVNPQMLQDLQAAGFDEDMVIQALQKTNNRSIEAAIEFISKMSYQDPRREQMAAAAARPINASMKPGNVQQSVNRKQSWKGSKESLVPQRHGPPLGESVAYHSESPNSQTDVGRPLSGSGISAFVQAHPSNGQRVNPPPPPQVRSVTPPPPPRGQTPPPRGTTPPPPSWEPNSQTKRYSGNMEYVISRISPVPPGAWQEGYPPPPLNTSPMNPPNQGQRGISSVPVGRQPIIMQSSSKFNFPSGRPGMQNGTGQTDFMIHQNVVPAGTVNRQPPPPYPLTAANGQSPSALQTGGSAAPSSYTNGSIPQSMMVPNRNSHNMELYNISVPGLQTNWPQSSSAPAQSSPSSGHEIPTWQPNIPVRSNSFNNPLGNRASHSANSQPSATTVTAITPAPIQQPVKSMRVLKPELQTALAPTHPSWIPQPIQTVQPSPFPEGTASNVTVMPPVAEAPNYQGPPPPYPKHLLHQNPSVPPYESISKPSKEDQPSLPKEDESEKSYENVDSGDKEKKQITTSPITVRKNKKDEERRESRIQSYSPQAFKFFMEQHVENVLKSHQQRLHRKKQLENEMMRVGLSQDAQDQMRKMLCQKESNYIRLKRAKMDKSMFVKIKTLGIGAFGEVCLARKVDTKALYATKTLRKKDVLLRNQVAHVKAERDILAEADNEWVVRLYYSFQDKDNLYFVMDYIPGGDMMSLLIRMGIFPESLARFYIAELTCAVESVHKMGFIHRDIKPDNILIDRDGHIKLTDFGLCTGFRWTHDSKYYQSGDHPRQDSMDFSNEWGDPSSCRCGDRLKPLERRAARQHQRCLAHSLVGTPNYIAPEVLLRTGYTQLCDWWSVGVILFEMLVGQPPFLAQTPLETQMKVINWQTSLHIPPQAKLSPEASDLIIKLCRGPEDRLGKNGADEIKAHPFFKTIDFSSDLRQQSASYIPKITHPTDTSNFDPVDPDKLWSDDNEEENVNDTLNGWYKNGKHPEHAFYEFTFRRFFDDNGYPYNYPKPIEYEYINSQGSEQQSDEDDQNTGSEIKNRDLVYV
Method in brief: (§1)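 Values come from a contract kinase-profiling service that tested the compound at multiple concentrations across 380 recombinant human kinases, as an off-target check against the MK2 activity.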

[2] = target: T2, 380 human recombinant protein kinases (Homo sapiens, UniProt P00519, H396P); settings: Abl (H396P) (h), read-out: Inhibition rate
T2 construct: purchased Eurofins (Celle Lévescault)
Method in brief: as §1

[3] = target: T3, 380 human recombinant protein kinases (Homo sapiens, UniProt P42336, E545K); settings: PI3 Kinase (p110α(E545K)/p85α)(h), read-out: Inhibition rate (%)
T3 construct: purchased Eurofins (Celle Lévescault)
Method in brief: as §1

[4] = target: T4, 380 human recombinant protein kinases (Homo sapiens, UniProt P49759); settings: CLK1(h), read-out: Inhibition rate
T4 construct: purchased Eurofins (Celle Lévescault)
Method in brief: as §1

[5] = target: T5, 380 human recombinant protein kinases (Homo sapiens, UniProt P78368); settings: CK1γ2(h), read-out: Inhibition rate
T5 construct: purchased Eurofins (Celle Lévescault)
Method in brief: as §1

[6] = target: T6, 380 human recombinant protein kinases (Homo sapiens, UniProt Q00534); settings: CDK6/cyclinD3(h), read-out: Inhibition rate
T6 construct: purchased Eurofins (Celle Lévescault)
Method in brief: as §1

[7] = target: T7, 380 human recombinant protein kinases (Homo sapiens, UniProt Q02156); settings: PKCε(h), read-out: Inhibition rate
T7 construct: purchased Eurofins (Celle Lévescault)
T7 sequence (Q02156 1-737): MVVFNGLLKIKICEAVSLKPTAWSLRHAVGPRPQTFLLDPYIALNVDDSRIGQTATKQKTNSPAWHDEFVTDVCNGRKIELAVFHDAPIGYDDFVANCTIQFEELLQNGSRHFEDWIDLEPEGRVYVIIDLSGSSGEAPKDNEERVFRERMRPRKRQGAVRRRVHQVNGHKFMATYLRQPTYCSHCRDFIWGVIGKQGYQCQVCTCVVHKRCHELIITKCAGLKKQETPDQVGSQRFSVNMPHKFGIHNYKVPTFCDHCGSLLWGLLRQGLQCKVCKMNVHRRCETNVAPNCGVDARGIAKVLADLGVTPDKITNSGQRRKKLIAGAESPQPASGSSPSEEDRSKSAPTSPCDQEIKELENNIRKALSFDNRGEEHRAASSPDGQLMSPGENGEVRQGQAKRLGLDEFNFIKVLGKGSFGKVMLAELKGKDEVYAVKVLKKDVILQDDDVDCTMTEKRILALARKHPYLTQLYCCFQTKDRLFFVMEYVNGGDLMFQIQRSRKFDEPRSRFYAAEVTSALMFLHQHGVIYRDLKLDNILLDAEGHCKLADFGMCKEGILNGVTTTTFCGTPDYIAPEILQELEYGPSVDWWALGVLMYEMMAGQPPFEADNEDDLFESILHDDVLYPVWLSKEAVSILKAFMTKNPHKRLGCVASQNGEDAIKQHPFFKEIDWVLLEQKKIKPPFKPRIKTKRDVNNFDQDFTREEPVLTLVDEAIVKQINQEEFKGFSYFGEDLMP
Method in brief: as §1

[8] = target: T8, 380 human recombinant protein kinases (Homo sapiens, UniProt Q16288); settings: TrkC(h), read-out: Inhibition rate (%)
T8 construct: purchased Eurofins (Celle Lévescault)
Method in brief: as §1

T8 sequence (Q16288 32-839): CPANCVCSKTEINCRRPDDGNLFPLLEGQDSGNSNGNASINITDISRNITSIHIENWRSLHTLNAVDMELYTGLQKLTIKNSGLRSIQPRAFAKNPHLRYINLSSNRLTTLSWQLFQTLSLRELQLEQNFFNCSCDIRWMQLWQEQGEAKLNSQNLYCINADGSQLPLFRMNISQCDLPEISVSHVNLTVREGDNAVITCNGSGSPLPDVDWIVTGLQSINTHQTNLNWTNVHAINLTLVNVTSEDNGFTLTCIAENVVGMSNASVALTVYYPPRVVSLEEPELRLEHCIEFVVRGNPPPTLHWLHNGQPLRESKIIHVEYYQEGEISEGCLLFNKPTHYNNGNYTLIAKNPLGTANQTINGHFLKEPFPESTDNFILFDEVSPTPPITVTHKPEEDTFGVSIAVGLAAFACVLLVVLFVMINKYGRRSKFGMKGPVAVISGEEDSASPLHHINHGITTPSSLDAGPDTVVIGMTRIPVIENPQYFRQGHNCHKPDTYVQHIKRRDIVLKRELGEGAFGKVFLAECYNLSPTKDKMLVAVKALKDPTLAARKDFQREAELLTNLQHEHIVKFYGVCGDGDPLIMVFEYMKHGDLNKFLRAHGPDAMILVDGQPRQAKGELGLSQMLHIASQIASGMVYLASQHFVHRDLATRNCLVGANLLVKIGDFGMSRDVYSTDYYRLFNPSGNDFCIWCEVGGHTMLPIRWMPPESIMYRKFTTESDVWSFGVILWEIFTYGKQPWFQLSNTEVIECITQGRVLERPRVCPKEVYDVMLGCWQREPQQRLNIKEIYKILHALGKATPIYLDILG
T6 sequence (Q00534 whole entry): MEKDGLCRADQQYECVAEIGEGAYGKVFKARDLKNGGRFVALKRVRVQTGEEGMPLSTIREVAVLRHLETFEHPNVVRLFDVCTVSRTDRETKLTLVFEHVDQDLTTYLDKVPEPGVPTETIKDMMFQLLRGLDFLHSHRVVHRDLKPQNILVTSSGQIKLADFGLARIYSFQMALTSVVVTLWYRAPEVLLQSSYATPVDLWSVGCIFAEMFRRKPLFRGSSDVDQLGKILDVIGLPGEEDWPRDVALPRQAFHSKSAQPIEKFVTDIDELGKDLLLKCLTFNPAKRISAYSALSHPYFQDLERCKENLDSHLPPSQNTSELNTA
T3 sequence (P42336 whole entry E545K): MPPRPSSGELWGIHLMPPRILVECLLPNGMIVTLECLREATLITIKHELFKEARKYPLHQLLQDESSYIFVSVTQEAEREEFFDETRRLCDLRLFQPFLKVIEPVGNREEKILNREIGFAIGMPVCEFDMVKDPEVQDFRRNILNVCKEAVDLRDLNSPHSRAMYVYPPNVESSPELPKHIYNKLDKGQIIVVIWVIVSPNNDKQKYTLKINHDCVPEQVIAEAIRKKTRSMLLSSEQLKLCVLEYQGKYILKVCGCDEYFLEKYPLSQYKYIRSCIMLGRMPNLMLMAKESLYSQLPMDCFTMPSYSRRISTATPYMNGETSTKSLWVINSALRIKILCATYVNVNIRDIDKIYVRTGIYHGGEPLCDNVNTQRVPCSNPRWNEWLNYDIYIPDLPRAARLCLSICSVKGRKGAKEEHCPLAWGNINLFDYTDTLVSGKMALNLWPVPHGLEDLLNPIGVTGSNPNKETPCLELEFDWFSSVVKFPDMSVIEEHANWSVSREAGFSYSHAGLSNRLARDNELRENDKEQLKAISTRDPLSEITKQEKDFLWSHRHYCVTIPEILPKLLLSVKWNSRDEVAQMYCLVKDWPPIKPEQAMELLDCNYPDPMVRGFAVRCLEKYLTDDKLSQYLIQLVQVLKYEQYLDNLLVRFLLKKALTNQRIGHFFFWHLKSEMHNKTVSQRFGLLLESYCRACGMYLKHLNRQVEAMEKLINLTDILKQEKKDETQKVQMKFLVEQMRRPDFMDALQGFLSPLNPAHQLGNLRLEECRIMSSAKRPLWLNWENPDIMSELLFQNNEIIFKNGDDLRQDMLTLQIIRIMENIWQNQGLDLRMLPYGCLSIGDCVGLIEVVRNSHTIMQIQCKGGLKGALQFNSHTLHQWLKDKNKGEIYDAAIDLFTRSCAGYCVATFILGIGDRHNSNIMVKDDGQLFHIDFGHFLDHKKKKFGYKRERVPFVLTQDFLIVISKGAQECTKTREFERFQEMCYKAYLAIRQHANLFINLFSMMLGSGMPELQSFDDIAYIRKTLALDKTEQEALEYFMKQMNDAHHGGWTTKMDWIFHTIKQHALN
T4 sequence (P49759 whole entry): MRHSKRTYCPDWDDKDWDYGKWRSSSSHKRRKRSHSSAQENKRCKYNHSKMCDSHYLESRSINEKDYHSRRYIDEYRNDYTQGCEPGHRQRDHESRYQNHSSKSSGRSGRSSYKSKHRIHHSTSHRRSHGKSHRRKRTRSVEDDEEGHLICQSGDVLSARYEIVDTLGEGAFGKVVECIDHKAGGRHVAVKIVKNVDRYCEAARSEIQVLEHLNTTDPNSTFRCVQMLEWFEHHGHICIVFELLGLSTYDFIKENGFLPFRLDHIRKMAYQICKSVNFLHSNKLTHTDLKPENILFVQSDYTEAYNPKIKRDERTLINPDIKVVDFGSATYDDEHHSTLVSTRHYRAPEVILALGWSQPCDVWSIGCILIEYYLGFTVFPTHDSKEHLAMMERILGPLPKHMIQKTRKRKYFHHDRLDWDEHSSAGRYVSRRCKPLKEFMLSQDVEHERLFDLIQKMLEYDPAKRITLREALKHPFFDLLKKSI
T5 sequence (P78368 whole entry): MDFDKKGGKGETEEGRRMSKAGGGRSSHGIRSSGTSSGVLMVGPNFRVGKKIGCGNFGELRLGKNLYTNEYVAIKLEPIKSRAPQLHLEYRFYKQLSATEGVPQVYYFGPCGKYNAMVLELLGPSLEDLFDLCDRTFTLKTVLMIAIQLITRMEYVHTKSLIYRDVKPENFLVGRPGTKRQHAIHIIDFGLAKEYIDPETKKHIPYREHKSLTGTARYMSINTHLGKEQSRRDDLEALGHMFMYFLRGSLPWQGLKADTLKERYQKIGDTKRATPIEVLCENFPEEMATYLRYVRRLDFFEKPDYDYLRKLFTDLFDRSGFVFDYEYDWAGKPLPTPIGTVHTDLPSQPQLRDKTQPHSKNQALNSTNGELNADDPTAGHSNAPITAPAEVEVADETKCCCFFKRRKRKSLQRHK

C=CC(=O)Nc1cc(-c2cc(-c3cc4c([nH]3)CCNC4=O)ccn2)ccc1OC(F)(F)F [compound 11]
inhibition at 0.01 µM ([1]; 10 nM): -11% | inhibition at 0.1 µM ([1]; 100 nM): -3% | inhibition at 1 µM ([1]; 1000 nM): 1% | inhibition at 0.01 µM ([2]; 10 nM): 6% | inhibition at 0.1 µM ([2]; 100 nM): 3% | inhibition at 1 µM ([2]; 1000 nM): 1% | inhibition at 0.01 µM ([3]; 10 nM): 2% | inhibition at 0.1 µM ([3]; 100 nM): 2% | inhibition at 1 µM ([3]; 1000 nM): 4% | inhibition at 0.01 µM ([4]; 10 nM): -7% | inhibition at 0.1 µM ([4]; 100 nM): 12% | inhibition at 1 µM ([4]; 1000 nM): 70% | inhibition at 0.01 µM ([5]; 10 nM): -7% | inhibition at 0.1 µM ([5]; 100 nM): 29% | inhibition at 1 µM ([5]; 1000 nM): 74% | inhibition at 0.01 µM ([6]; 10 nM): 2% | inhibition at 0.1 µM ([6]; 100 nM): 6% | inhibition at 1 µM ([6]; 1000 nM): -3% | inhibition at 0.01 µM ([7]; 10 nM): 1% | inhibition at 0.1 µM ([7]; 100 nM): 12% | inhibition at 1 µM ([7]; 1000 nM): 13% | inhibition at 0.01 µM ([8]; 10 nM): -3% | inhibition at 0.1 µM ([8]; 100 nM): 4% | inhibition at 1 µM ([8]; 1000 nM): -3%

— article PMC11233931, “Remodeling tumor‐associated macrophage for anti‐cancer effects by rational design of irreversible inhibition of mitogen‐activated protein kinase‐activated protein kinase 2” (MedComm, 2024)
